This passage reports Activity and IC50 results from ChEMBL document CHEMBL4616662, “Cyperane-Type and Related (Nor)Sesquiterpenoids from the Root Bark of Acanthopanax gracilistylus and Their Inhibitory Effects on Nitric Oxide Production” (J Nat Prod, 2020).

The subject of series [1] is RAW264.7. Kind of series: Cytotoxicity against LPS-stimulated mouse RAW264.7 cells at 6.25 to 100 uM by MTT assay. The series is classed as cell-based. As to conditions: raw264.7, 100 µM. Background: Tetrazolium dyes change colour on reduction, which living cells bring about.
For series [2], the system named is RAW264.7. Kind of series: Antiinflammatory activity in mouse RAW264.7 cells assessed as inhibition of LPS-induced nitirc oxide production pretreated followed by LPS challenge and measured after 24 hrs by Griess assay. The series is classed as functional, cell-based.

For the molecule `CC(=O)[C@]12C=C([C@@](C)(O)CO)CC[C@@]1(C)CC[C@H]2O`, the Activity entry with RAW264.7 [1] is “Non-Toxic”. In the series with RAW264.7 [2], the concentration for half-maximal inhibition (IC50) (as a rule, the concentration that gives 50% inhibition) came to 6.8 µM.

In the case of `CC(=O)[C@@H]1CC[C@@]2(C)CCC(=O)O[C@@]2(C(C)=O)C1`, the Activity entry in the series on RAW264.7 [1] is reported as “Non-Toxic”. Also, the IC50 in the series with RAW264.7 [2] came out at 2.6 µM.

On to `CC(=O)[C@@]12C=C([C@](C)(O)CO)CC[C@]1(C)CC[C@@H]2O`, for which, in the series on RAW264.7 [1], the Activity entry is recorded as “Non-Toxic”. In addition, the IC50 with RAW264.7 [2] was 7.7 µM. As to `COC(=O)[C@@H](N)CCCNC(=N)N[N+](=O)[O-]` [L-NAME], in the series on RAW264.7 [2], the IC50 was found to be 58.4 µM.
